Experimental data as given in patent US12070458B2, “Therapeutic agent composition and method of use, for treatment of mild congnitive impairment, depression, and psychological disorders” (priority 2018, dated 2024).
Residues, ends and D or L forms follow the SMILES beside them.

Legend:
[1] = system: cerebellar microexplants (P4); experiment: Glutamate induced neuronal death in cerebellar microexplants (P4); type: cell-based, Wistar rats; conditions: for neuron number compared to the normal control group: a further lower dose; for recovery from glutamate-induced neurotoxicity: lower doses 10-100 nM, simultaneously with glutamate
Procedure: Cerebellar Cell Culture Preparing and Coating of Cover Slips
Ten coverslips were placed into a large petri dish and washed in 70% alcohol for 5 minutes, then washed with Millipore H2O. The coverslips were air dried, then coated with Poly-D-Lysine (1 mg/ml stock solution in PBS, 90-100 μl) and incubated for 2 hours at 34° C.
Postnatal day 4 Wistar rats were used for the study. Rats were placed in ice for 1 minute, the heads were decapitated and the cerebellum removed on ice. Cerebellum tissue was placed in 1 ml of 0.65% glucose supplemented PBS (10 μl 65% stock D (+)glucose/1 ml PBS) in a large petri dish, chopped up into smaller sections and triturate with a 1 ml insulin syringe via a 23 G (0.4 mm) needle, and then squirted back into the glucose solution on the large petri dish. The tissue was sieved through (125 μm pore size gaze) and centrifuged (2 minutes at 60 g) two times for a medium exchange into serum-free BSA-supplemented START V medium (Biochrom). The second centrifugation step was done with 1 ml of START V medium. The microexplants were reconstituted into 500 μl of START V medium and put on ice.
Cultivation and Fixation of Cerebellar Cells
Two hours after PDL-coating, the slides were washed with Millipore H2O and air dried. Each slide was placed into a small 35 mm petri dish and 40 μl of START V/cell suspension added. The tissue was incubated for 2 hours at 34° C. (settlement period). START V-medium (1 ml) was then added to the petri dish and cultivated at 34° C./5% CO2/100% humidity for 48 hours. Cells were rinsed in PBS and then fixed for 2-3 minutes in increasing concentrations of paraformaldehyde (500 μl of 0.4% PFA was applied; then 1.2% PFA; then 3% PFA and finally 4% PFA—all fixation solutions contain 0.2% glutardialdehyde). Finally, the microexplants were rinsed in PBS.
(§1) 10 μl of toxin (L-glutamate-100 mM in Millipore water) was applied simultaneously with cPG (from bachem, 10 mM stock prepared in PBS and diluted to final concentrations between 1-100 nM) for Study 1. A delay in administration of cPG at 6 hours after glutamate treatment was performed for Study 2.
as §1, with “cyclic(tri(prolylglycyl)) (which was obtained from NeuroBiomed, San Jose, California),” for “cPG (from bachem,”, “cyclic(tri(prolylglycyl))” for “cPG”
as §1, with “cyclic Glycyl-2-Methyl Proline (obtained NeuroBiomed, San Jose California),” for “cPG (from bachem,”

[2] = system: BrdU positive cells in sub ventricular zone and dentate gyrus; experiment: Neurogenesis by BrdU co-administration (sub ventricular zone, dentate gyrus); type: in vivo, Wistar rats; conditions: 10 mg/kg i.p. in 0.1% RSA twice daily for 7 days, compared to sham injected
Procedure: Male Wistar rats weighing about 250-270 g (not newborn) were used. All animal experiments were conducted in agreement with national and international guidelines. Care was taken to minimize suffering for the animals. Animals were allowed to acclimatize for 1 week before start of the studies. Animals were housed under standardized conditions with normal tight-dark periods and in groups of five animals per cage. Animals had access to food and water ad libitum during the studies.
Three neurogenesis modulating agents, cPG, c(PG)3 and cGMeP were separately administered intraperitoneally to Male Wistar rats (N=10) at 10 mg/kg in Rat Serum Albumin (RSA). The negative control (n=12), the vehicle group was injected with saline (in 0.1% RSA). Bromodeoxyuridine (Brd1J; 50 mg/kg) was co-administrated together with the compounds. The intraperitoneally injections were given with a 12 hour interval for 7 days. Animals were perfused on day 8. The rats were kept at 12 hours light/dark regime. In perfusion, animals were perfused transcranially with 50 ml of ice cold phosphate buffered saline (PBS) and then 100 ml of 4% paraformaldehyde in PBS. Brains were fixed after removal in 4% paraformaldehyde in PBS for 24 hours at 4° C. at least 3 days before sectioning. The procedures of transcranial infusion consist the following steps: […]

[3] = system: scopolamine-induced memory impairment; experiment: Morris Water Maze, scopolamine-induced memory impairment; type: in vivo, Wistar rats; conditions: 20 mg/kg; daily, oral; scopolamine 0.5 mg/kg i.p.
[4] = 1-100 nM given 6 hours after the glutamate treatment, compared to vehicle
[5] = administered simultaneously with glutamate, 1-100 nM, glutamate alone 85% loss of neurons

SMILES	improvement, recovery from glutamate induced neurotoxicity [1, 4]	neuron number compared to the normal control group [1]	reduction of glutamate induced neuronal death [1, 5] [%]	recovery from glutamate-induced neurotoxicity [1]	number of newborn cells (BrdU positive) in sub ventricular zone and dentate gyrus [2]	recovery from glutamate induced neurotoxicity [1, 4]	glutamate induced neuronal death [1, 5]	cognitive impairment induced by scopolamine (time to platform) [3]
O=C1NCC(=O)N2CCC[C@H]2C(=O)NCC(=O)N2CCC[C@H]2C(=O)NCC(=O)N2CCCC12 (stereo partly drawn) [c(PG)3, cyclic (glycyl-L-prolylglycyl-L-prolylglycyl-L-prolyl)] (HELM PEPTIDE1{G.P.G.P.G.[O=C(C1CCCN1[*:1])[*:2]]}$PEPTIDE1,PEPTIDE1,1:R1-6:R2$$$V2.0)	approximately 43%	significant increase	57	significant recovery	significant increase	–	–	–
O=C1NCC(=O)N2CCC[C@@H]12 [cPG, cyclic Prolyl Glycine]	–	significant increase	–	significant recovery	significant increase	significantly recovery	significantly reduced	significantly reversed
